For data set [1] the following is noted: Crystal.
Data set [2] can be described thus: Molar enthalpy of transition or fusion. Particulars: Crystal.
Data set [3] in a line: molar enthalpy of vaporization or sublimation. Particulars: Crystal.

± gives the expanded uncertainty stated by the source.

Take `CC1=C(C)C(=O)C(C)=C(C)C1=O` [1,4-benzoquinone, tetramethyl-]: the results for the Triple point temperature in data set [1] (DTA) and in data set [1] (heat flux calorimetry) were 384.12 ± 0.64 K and 384.84 ± 0.09 K, respectively. The results for the “Molar enthalpy of transition or fusion” value in data set [2] (DSC) and in data set [2] (heat flux calorimetry) were 4.4 ± 0.105 kcal/mol and 4.431 ± 0.0382 kcal/mol, respectively. For the same molecule, the molar enthalpy in data set [3] (297.3 K) was found to be 22.3 ± 0.765 kcal/mol; in data set [3] (297.4 K), 21.9 ± 0.765 kcal/mol; in data set [3] (298.15 K), 22.3 ± 1.05 kcal/mol.
`O=C1C=CC(=O)C=C1` [1,4-benzoquinone]: the Triple point temperature in data set [1] (DTA) was 385.07 ± 0.68 K; in data set [1] (heat flux calorimetry), 385.65 ± 0.24 K. Besides, the “Molar enthalpy of transition or fusion” value in data set [2] (DSC) was found to be 4.4 ± 0.108 kcal/mol; in data set [2] (heat flux calorimetry), 4.39 ± 0.174 kcal/mol. The molar enthalpy in data set [3] (277.3 K) was determined as 15.4 ± 0.598 kcal/mol; in data set [3] (278.2 K) it was 15.1 ± 0.598 kcal/mol; in data set [3] (279.2 K) it was 14.9 ± 0.598 kcal/mol; in data set [3] (298.15 K) it was 15.9 ± 0.884 kcal/mol.

For the origin of these results see the NIST ThermoML archive (doi:10.1016/j.jct.2004.03.002).
